The text below walks through data of patent US7932262B2 (Novartis AG, priority 2006, dated 2011).

Structures are written as SMILES.

One test has as its target T1, PDK1 kinase (Homo sapiens, UniProt O15530).
T1 sequence (O15530 1-556): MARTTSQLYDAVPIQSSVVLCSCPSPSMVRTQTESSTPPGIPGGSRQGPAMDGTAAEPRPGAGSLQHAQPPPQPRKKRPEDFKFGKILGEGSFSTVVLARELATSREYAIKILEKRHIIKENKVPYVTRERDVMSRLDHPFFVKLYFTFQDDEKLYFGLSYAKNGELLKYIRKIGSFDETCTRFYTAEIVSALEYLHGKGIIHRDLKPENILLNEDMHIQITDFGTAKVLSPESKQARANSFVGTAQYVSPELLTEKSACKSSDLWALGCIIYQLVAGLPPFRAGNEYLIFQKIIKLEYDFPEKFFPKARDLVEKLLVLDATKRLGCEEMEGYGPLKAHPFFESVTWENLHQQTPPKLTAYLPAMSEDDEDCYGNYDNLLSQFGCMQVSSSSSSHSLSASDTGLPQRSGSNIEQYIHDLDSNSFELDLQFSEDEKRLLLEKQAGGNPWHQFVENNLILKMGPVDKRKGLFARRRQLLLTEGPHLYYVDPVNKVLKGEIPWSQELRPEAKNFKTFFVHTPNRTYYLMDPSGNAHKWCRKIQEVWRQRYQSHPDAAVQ
The test can be described thus: PDK1 Kinase Alpha Screen Assay. The class given is biochemical. The following applies: read-out: PDK1 IC50. Summed up:
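Compound in DMSO added to PDK1-4 peptide; PDK1/ATP mix starts reaction (final 50 nM peptide, 10 uM ATP). Runs 3-18 hours, stopped with 90 mM EDTA buffer. Antibody/bead mix added, developed overnight at room temperature, then AlphaScreen signal read.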

In another test the test system is PC-3 cells. The test can be described thus: Cell Proliferation Assay (Cell Titer Glo), PC-3 cell line. Format: cell-based. The following applies: Homo sapiens, PC-3, PC3 cells; read-out: CPEC50 PC3. Summed up: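 PC-3 cells, 1000 cells/well, left to adhere 3-5 h, then exposed for 3 days at 37° C to compounds as 1:3 serial dilutions from 500× DMSO stocks diluted in growth medium. Medium then replaced with fresh medium and viability read by Cell Titer Glo luminescence.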

Consider `Nc1cc(C(F)(F)F)c(-c2cccc3cnc(Nc4ccc(S(N)(=O)=O)cc4)nc23)cn1` [Compound 930, 4-(8-(6-amino-4-(trifluoromethyl)pyridin-3-yl)quinazolin-2-ylamino)benzenesulfonamide], for which the IC50 at PDK1 kinase is under 5 µM. In the test on PC-3 cells, the EC50 was under 5 µM.

With `Cn1cc(-c2cccc3cnc(Nc4ccc(S(N)(=O)=O)cc4)nc23)cn1` [Compound 931, 4-(8-(1-methyl-1H-pyrazol-4-yl)quinazolin-2-ylamino)benzenesulfonamide], on PDK1 kinase, the IC50 was under 5 µM. For the same compound, in the test with PC-3 cells, the EC50 is 5 to 10 µM.

As for `NS(=O)(=O)c1ccc(Nc2ncc3cccc(CNCCN4CCCC4)c3n2)cc1` [Compound 935, 4-(8-((2-(pyrrolidin-1-yl)ethylamino)methyl)quinazolin-2-ylamino)benzenesulfonamide], the IC50 on PDK1 kinase was under 5 µM. In addition, in the test on PC-3 cells, the EC50 is 5 to 10 µM.

Regarding `CN(C)[C@H]1CCN(Cc2cccc3cnc(Nc4ccc(S(N)(=O)=O)cc4)nc23)C1` [Compound 936, (S)-4-(8-((3-(dimethylamino)pyrrolidin-1-yl)methyl)quinazolin-2-ylamino)benzenesulfonamide], the IC50 at PDK1 kinase was under 5 µM. Further, in the test on PC-3 cells, the EC50 is under 5 µM.

In the case of `CN1CCC(NCc2cccc3cnc(Nc4ccc(S(N)(=O)=O)cc4)nc23)CC1` [Compound 937, 4-(8-((1-methylpiperidin-4-ylamino)methyl)quinazolin-2-ylamino)benzenesulfonamide], the IC50 at PDK1 kinase is under 5 µM. The EC50 in the test on PC-3 cells was 5 to 10 µM.

On to `CN(C)[C@@H]1CCN(Cc2cccc3cnc(Nc4ccc(S(N)(=O)=O)cc4)nc23)C1` [Compound 938, (R)-4-(8-((3-(dimethylamino)pyrrolidin-1-yl)methyl)quinazolin-2-ylamino)benzenesulfonamide], for which the IC50 at PDK1 kinase was under 5 µM. Further, the EC50 in the test with PC-3 cells is 5 to 10 µM.

`Cc1ccc(-c2ccc3cnc(Nc4ccc(S(N)(=O)=O)cc4)nc3c2)c(F)n1` [Compound 939, 4-(7-(2-fluoro-6-methylpyridin-3-yl)quinazolin-2-ylamino)benzenesulfonamide]: the IC50 on PDK1 kinase was under 5 µM. Moreover, the EC50 with PC-3 cells was under 5 µM.

On to `CC(C)N1CCC(c2c(O)ccc3cnc(Nc4ccc(F)cc4)nc23)CC1` [Compound 940, 2-(4-fluorophenylamino)-8-(1-isopropylpiperidin-4-yl)quinazolin-7-ol], for which the IC50 at PDK1 kinase is under 5 µM. The EC50 with PC-3 cells was 5 to 10 µM.

With `NS(=O)(=O)c1ccc(Nc2ncc3cccc(-c4cncc(CN5CCCC5)c4)c3n2)cc1` [Compound 941, 4-(8-(5-(pyrrolidin-1-ylmethyl)pyridin-3-yl)quinazolin-2-ylamino)benzenesulfonamide], at PDK1 kinase, the IC50 was under 5 µM. Besides, the EC50 with PC-3 cells is under 5 µM.

As to `NS(=O)(=O)c1ccc(Nc2ncc3cccc(-c4cncc(CN5CCOCC5)c4)c3n2)cc1` [Compound 942, 4-(8-(5-(morpholinomethyl)pyridin-3-yl)quinazolin-2-ylamino)benzenesulfonamide], at PDK1 kinase, the IC50 was under 5 µM. Also, in the test on PC-3 cells, the EC50 is under 5 µM.

For the compound `CN1CCN(Cc2cncc(-c3cccc4cnc(Nc5ccc(S(N)(=O)=O)cc5)nc34)c2)CC1` [Compound 943, 4-(8-(5-((4-methylpiperazin-1-yl)methyl)pyridin-3-yl)quinazolin-2-ylamino)benzenesulfonamide], the IC50 on PDK1 kinase is under 5 µM. In the test on PC-3 cells, the EC50 is under 5 µM.

As for `NS(=O)(=O)c1ccc(Nc2ncc3cccc(-c4cncc(CN5CCNC(=O)C5)c4)c3n2)cc1` [Compound 944, 4-(8-(5-((3-oxopiperazin-1-yl)methyl)pyridin-3-yl)quinazolin-2-ylamino)benzenesulfonamide], the half-maximal inhibitory concentration (IC50) on PDK1 kinase was under 5 µM. The EC50 in the test on PC-3 cells fell in the range of 5 to 10 µM.

Consider `Cn1cc(-c2ccc3cnc(Nc4ccc(S(N)(=O)=O)cc4)nc3c2-c2ccc(NCCN3CCCC3)nc2)cn1` [Compound 945, 4-(7-(1-methyl-1H-pyrazol-4-yl)-8-(6-(2-(pyrrolidin-1-yl)ethylamino)pyridin-3-yl)quinazolin-2-ylamino)benzenesulfonamide], for which the IC50 on PDK1 kinase was under 5 µM. Also, the EC50 in the test on PC-3 cells was under 5 µM.

On to `CC(C)NCc1cncc(-c2cccc3cnc(Nc4ccc(S(N)(=O)=O)cc4)nc23)c1` [Compound 946, 4-(8-(5-((isopropylamino)methyl)pyridin-3-yl)quinazolin-2-ylamino)benzenesulfonamide], for which the IC50 on PDK1 kinase is under 5 µM. Moreover, the EC50 in the test on PC-3 cells was under 5 µM.

Turning to `NC(=O)C1CCN(Cc2cncc(-c3cccc4cnc(Nc5ccc(S(N)(=O)=O)cc5)nc34)c2)CC1` [Compound 947, 1-((5-(2-(4-sulfamoylphenylamino)quinazolin-8-yl)pyridin-3-yl)methyl)piperidine-4-carboxamide], at PDK1 kinase, the IC50 was under 5 µM. Further, in the test with PC-3 cells, the EC50 lay within 5 to 10 µM.

Regarding `NS(=O)(=O)c1ccc(Nc2ncc3cccc(-c4cncc(CNC5CCOCC5)c4)c3n2)cc1` [Compound 948, 4-(8-(5-((tetrahydro-2H-pyran-4-ylamino)methyl)pyridin-3-yl)quinazolin-2-ylamino)benzenesulfonamide], the IC50 on PDK1 kinase is under 5 µM. The EC50 with PC-3 cells is under 5 µM.

With `CC(=O)N1CCN(Cc2cncc(-c3cccc4cnc(Nc5ccc(S(N)(=O)=O)cc5)nc34)c2)CC1` [Compound 949, 4-(8-(5-((4-acetylpiperazin-1-yl)methyl)pyridin-3-yl)quinazolin-2-ylamino)benzenesulfonamide], the IC50 on PDK1 kinase is under 5 µM. Further, the EC50 in the test with PC-3 cells is 5 to 10 µM.

On to `CN(Cc1cncc(-c2cccc3cnc(Nc4ccc(S(N)(=O)=O)cc4)nc23)c1)C1CCOCC1` [Compound 950, 4-(8-(5-((methyl(tetrahydro-2H-pyran-4-yl)amino)methyl)pyridin-3-yl)quinazolin-2-ylamino)benzenesulfonamide], for which the IC50 on PDK1 kinase is under 5 µM. Also, the EC50 in the test with PC-3 cells was under 5 µM.

In the case of `CN(C)[C@@H]1CCN(c2ccc(-c3cccc4cnc(Nc5ccc(S(N)(=O)=O)cc5)nc34)cn2)C1` [Compound 951, (R)-4-(8-(6-(3-(dimethylamino)pyrrolidin-1-yl)pyridin-3-yl)quinazolin-2-ylamino)benzenesulfonamide], the IC50 on PDK1 kinase is under 5 µM. Also, in the test with PC-3 cells, the EC50 was under 5 µM.

With `CN(C)[C@H]1CCN(c2ccc(-c3cccc4cnc(Nc5ccc(S(N)(=O)=O)cc5)nc34)cn2)C1` [Compound 952, (S)-4-(8-(6-(3-(dimethylamino)pyrrolidin-1-yl)pyridin-3-yl)quinazolin-2-ylamino)benzenesulfonamide], the IC50 at PDK1 kinase was under 5 µM. Moreover, the EC50 in the test on PC-3 cells was under 5 µM.

Regarding `NS(=O)(=O)c1ccc(Nc2ncc3cccc(-c4ccc(NCCN5CCOCC5)nc4)c3n2)cc1` [Compound 953, 4-(8-(6-(2-morpholinoethylamino)pyridin-3-yl)quinazolin-2-ylamino)benzenesulfonamide], the IC50 on PDK1 kinase was under 5 µM. For the same compound, the EC50 in the test on PC-3 cells was under 5 µM.

For `CCN(CC)CCNc1ccc(-c2cccc3cnc(Nc4ccc(S(N)(=O)=O)cc4)nc23)cn1` [Compound 954, 4-(8-(6-(2-(diethylamino)ethylamino)pyridin-3-yl)quinazolin-2-ylamino)benzenesulfonamide], on PDK1 kinase, the IC50 was under 5 µM. For the same compound, in the test on PC-3 cells, the EC50 is under 5 µM.

Regarding `CN1CCC(Nc2ccc(-c3cccc4cnc(Nc5ccc(S(N)(=O)=O)cc5)nc34)cn2)CC1` [Compound 955, 4-(8-(6-(1-methylpiperidin-4-ylamino)pyridin-3-yl)quinazolin-2-ylamino)benzenesulfonamide], the concentration for half-maximal inhibition (IC50) on PDK1 kinase was under 5 µM. Moreover, the EC50 with PC-3 cells was under 5 µM.
